Reference: patent publication US8492395B2, “7-substituted quinazolinone compounds and compositions comprising the same” (Celgene Corporation, priority 2007, dated 2013)

How the values were obtained:
Namalwa AG4 cells = assay: Cell proliferation assay (3H-thymidine incorporation); format: cell-based; conditions: one collective range stated for the tested compounds, read-out: IC50 values for inhibiting proliferation of Namalwa AG4 cells
Description: 5.48.3 Cell Proliferation Assay
Cell lines Namalwa, MUTZ-5, and UT-7 are obtained from the Deutsche Sammlung von Mikroorganismen und Zellkulturen GmbH (Braunschweig, Germany). The cell line KG-1 is obtained from the American Type Culture Collection (Manassas, Va., USA). Cell proliferation as indicated by ^3H-thymidine incorporation is measured in all cell lines as follows.
Cells are plated in 96-well plates at 6000 cells per well in media. The cells are pre-treated with compounds at about 100, 10, 1, 0.1, 0.01, 0.001, 0.0001 and 0 μM in a final concentration of about 0.25% DMSO in triplicate at 37° C. in a humidified incubator at 5% CO2 for 72 hours. One microcurie of 3H-thymidine (Amersham) is then added to each well, and cells are incubated again at 37° C. in a humidified incubator at 5% CO2 for 6 hours. The cells are harvested onto UniFilter GF/C filter plates (Perkin Elmer) using a cell harvester (Tomtec), and the plates are allowed to dry overnight. Microscint 20 (Packard) (25 μl/well) is added, and plates are analyzed in TopCount NXT (Packard). Each well is counted for one minute. Percent inhibition of cell proliferation is calculated by averaging all triplicates and normalizing to the DMSO control (0% inhibition). Each compound is tested in each cell line in three separate experiments. Final IC50s are calculated using non-linear regression, sigmoidal dose-response, constraining the top to 100% and bottom to 0%, allowing variable slope. (GraphPad Prism v3.02).
Abilities of certain compounds for inhibiting proliferation of Namalwa AG4 cells were determined using procedures substantially similar to those described in Section 5.48.3, above.

melting point	SMILES	IC50 (Namalwa AG4 cells) [nM]
313 to 315 °C	Cc1nc2cc(CN)ccc2c(=O)n1C1CCC(=O)NC1=O.Cl (stereo not shown)	
165 to 167 °C	Cc1nc2ccc(CNC(=O)c3ccc(OC(F)(F)F)cc3)cc2c(=O)n1C1CCC(=O)NC1=O (stereo not shown) [N-[3-(2,6-dioxo-piperidin-3-yl)-2-methyl-4-oxo-3,4-dihydro-quinazolin-6-ylmethyl]-4-trifluoromethoxy-benzamide]	10 to 5500
223 to 225 °C	CCCCCCC(=O)NCc1ccc2nc(C)n(C3CCC(=O)NC3=O)c(=O)c2c1 (stereo not shown) [heptanoic acid [3-(2,6-dioxo-piperidin-3-yl)-2-methyl-4-oxo-3,4-dihydro-quinazolin-6-ylmethyl]-amide]	10 to 5500
296 to 298 °C	O=C1CCC(n2cnc3cc(F)ccc3c2=O)C(=O)N1 (stereo not shown) [Example 5.33, 3-(7-fluoro-4-oxo-4H-quinazolin-3-yl)-piperidine-2,6-dione]	
200 to 202 °C	Cc1cccc(NC(=O)NCc2ccc3nc(C)n(C4CCC(=O)NC4=O)c(=O)c3c2)c1 (stereo not shown) [1-[3-(2,6-dioxo-piperidin-3-yl)-2-methyl-4-oxo-3,4-dihydro-quinazolin-6-ylmethyl]-3-m-tolyl-urea]	10 to 5500
270 to 272 °C	Cc1ccc2nc(C)n(C3CCC(=O)NC3=O)c(=O)c2c1 (stereo not shown) [Example 5.1, 3-(2,6-dimethyl-4-oxo-4H-quinazolin-3-yl)-piperidine-2,6-dione]	
276 to 278 °C	Cc1nc2ccc(Cl)cc2c(=O)n1C1CCC(=O)NC1=O (stereo not shown) [Example 5.4, 3-(6-chloro-2-methyl-4-oxo-4H-quinazolin-3-yl)-piperidine-2,6-dione]	
238 to 240 °C	Cc1nc2c(Cl)cc(Cl)cc2c(=O)n1C1CCC(=O)NC1=O (stereo not shown) [Example 5.46, 3-(6,8-dichloro-2-methyl-4-oxo-4H-quinazolin-3-yl)-piperidine-2,6-dione]	
169 to 171 °C	Cc1nc2ccc(CNC(=O)c3ccc(SC(F)(F)F)cc3)cc2c(=O)n1C1CCC(=O)NC1=O (stereo not shown) [N-[3-(2,6-dioxo-piperidin-3-yl)-2-methyl-4-oxo-3,4-dihydro-quinazolin-6-ylmethyl]-4-trifluoromethyl-sulfanyl-benzamide]	10 to 5500
266 to 268 °C	Cc1nc2c(O)cccc2c(=O)n1C1CCC(=O)NC1=O (stereo not shown) [3-(8-hydroxy-2-methyl-4-oxo-4H-quinazolin-3-yl)-piperidine-2,6-dione]	
302 to 305 °C	O=C1CCC(n2cnc3ccc(Cl)cc3c2=O)C(=O)N1 (stereo not shown) [Example 5.7, 3-(6-chloro-4-oxo-4H-quinazolin-3-yl)-piperidine-2,6-dione]	
267 to 269 °C	Cc1nc2ccc(CNC(=O)c3ccc(Cl)cc3)cc2c(=O)n1C1CCC(=O)NC1=O (stereo not shown) [4-chloro-N-[3-(2,6-dioxo-piperidin-3-yl)-2-methyl-4-oxo-3,4-dihydro-quinazolin-6-ylmethyl]-benzamide]	
305 °C (dec.)	Cc1ccc2c(=O)n(C3CCC(=O)NC3=O)c(C)nc2c1 (stereo not shown) [3-(2,7-dimethyl-4-oxo-4H-quinazolin-3-yl)-piperidine-2,6-dione]	
186 to 188 °C	Cc1ccc(NC(=O)NCc2ccc3nc(C)n(C4CCC(=O)NC4=O)c(=O)c3c2)cc1Cl (stereo not shown) [1-(3-chloro-4-methyl-phenyl)-3-[3-(2,6-dioxo-piperidin-3-yl)-2-methyl-4-oxo-3,4-dihydro-quinazolin-6-ylmethyl]-urea]	10 to 5500
212.5 to 214.5 °C	Cc1nc2ccc(CNC(=O)OC(C)(C)C)cc2c(=O)n1C1CCC(=O)NC1=O (stereo not shown) [Example 5.11, [3-(2,6-dioxo-piperidin-3-yl)-2-methyl-4-oxo-3,4-dihydro-quinazolin-6-ylmethyl]-carbamic acid tert-butyl ester]	
313 to 315 °C	Cc1ccc2c(=O)n(C3CCC(=O)NC3=O)cnc2c1 (stereo not shown) [Example 5.34, 3-(7-methyl-4-oxo-4H-quinazolin-3-yl)-piperidine-2,6-dione]	
221 to 223 °C	Cc1nc2ccc(CNC(=O)c3ccc(C(F)(F)F)cc3)cc2c(=O)n1C1CCC(=O)NC1=O (stereo not shown) [N-[3-(2,6-dioxo-piperidin-3-yl)-2-methyl-4-oxo-3,4-dihydro-quinazolin-6-ylmethyl]-4-trifluoromethyl-benzamide]	10 to 5500

melting point	SMILES	IC50 (Namalwa AG4 cells) [nM]
351 to 353 °C	Cc1nc2c(C(F)(F)F)cccc2c(=O)n1C1CCC(=O)NC1=O (stereo not shown) [3-(2-methyl-4-oxo-8-trifluoromethyl-4H-quinazolin-3-yl)-piperidine-2,6-dione]	
229.5 to 231.5 °C	Cc1nc2ccc(CNC(=O)Cc3ccc(Cl)cc3)cc2c(=O)n1C1CCC(=O)NC1=O (stereo not shown) [2-(4-chloro-phenyl)-N-[3-(2,6-dioxo-piperidin-3-yl)-2-methyl-4-oxo-3,4-dihydro-quinazolin-6-ylmethyl]-acetamide]	10 to 5500
225 to 227 °C	Cc1nc2ccc(CNC(=O)Nc3ccc(Cl)cc3)cc2c(=O)n1C1CCC(=O)NC1=O (stereo not shown) [1-(4-chloro-phenyl)-3-[3-(2,6-dioxo-piperidin-3-yl)-2-methyl-4-oxo-3,4-dihydro-quinazolin-6-ylmethyl]-urea]	10 to 5500
240 to 242 °C	Cc1nc2cc(CNC(=O)OC(C)(C)C)ccc2c(=O)n1C1CCC(=O)NC1=O (stereo not shown) [Example 5.36, [3-(2,6-dioxo-piperidin-3-yl)-2-methyl-4-oxo-3,4-dihydro-quinazolin-7-ylmethyl]-carbamic acid tert-butyl ester]	
299 to 301 °C	Cc1nc2ccc(CN)cc2c(=O)n1C1CCC(=O)NC1=O.Cl (stereo not shown)	
	Cc1nc2ccc(CNC(=O)c3ccc(Cl)c(Cl)c3)cc2c(=O)n1C1CCC(=O)NC1=O (stereo not shown) [3,4-dichloro-N-[3-(2,6-dioxo-piperidin-3-yl)-2-methyl-4-oxo-3,4-dihydro-quinazolin-6-ylmethyl]-benzamide]	10 to 5500
220 to 222 °C	Cc1nc2ccc(CNC(=O)c3cccc(C(F)(F)F)c3)cc2c(=O)n1C1CCC(=O)NC1=O (stereo not shown) [N-[3-(2,6-dioxo-piperidin-3-yl)-2-methyl-4-oxo-3,4-dihydro-quinazolin-6-ylmethyl]-3-trifluoromethyl-benzamide]	10 to 5500
307 to 309 °C	Cc1nc2c(Br)cccc2c(=O)n1C1CCC(=O)NC1=O (stereo not shown) [3-(8-bromo-2-methyl-4-oxo-4H-quinazolin-3-yl)-piperidine-2,6-dione]	
325 °C (dec.)	COc1cc2nc(C)n(C3CCC(=O)NC3=O)c(=O)c2cc1OC (stereo not shown) [3-(6,7-dimethoxy-2-methyl-4-oxo-4H-quinazolin-3-yl)-piperidine-2,6-dione]	
296 to 298 °C	Cc1cccc2c(=O)n(C3CCC(=O)NC3=O)c(C)nc12 (stereo not shown) [3-(2,8-dimethyl-4-oxo-4H-quinazolin-3-yl)-piperidine-2,6-dione]	
277 to 279 °C	Cc1nc2cc(C(F)(F)F)ccc2c(=O)n1C1CCC(=O)NC1=O (stereo not shown) [Example 5.32, 3-(2-methyl-4-oxo-7-trifluoromethyl-4H-quinazolin-3-yl)-piperidine-2,6-dione]	
273 to 275 °C	Cc1nc2ccc(F)cc2c(=O)n1C1CCC(=O)NC1=O (stereo not shown) [Example 5.3, 3-(6-fluoro-2-methyl-4-oxo-4H-quinazolin-3-yl)-piperidine-2,6-dione]	
281 to 283 °C	Cc1nc2ccc(CNC(=O)C3CC3)cc2c(=O)n1C1CCC(=O)NC1=O (stereo not shown) [cyclopropanecarboxylic acid [3-(2,6-dioxo-piperidin-3-yl)-2-methyl-4-oxo-3,4-dihydro-quinazolin-6-ylmethyl]-amide]	
290 to 292 °C	Cc1nc2c(Cl)cccc2c(=O)n1C1CCC(=O)NC1=O (stereo not shown) [Example 5.40, 3-(8-chloro-2-methyl-4-oxo-4H-quinazolin-3-yl)-piperidine-2,6-dione]	
285 to 287 °C	Cc1ccc2ncn(C3CCC(=O)NC3=O)c(=O)c2c1 (stereo not shown) [Example 5.9, 3-(6-methyl-4-oxo-4H-quinazolin-3-yl)-piperidine-2,6-dione]	
290 to 292 °C	Cc1cccc2c(=O)n(C3CCC(=O)NC3=O)cnc12 (stereo not shown) [Example 5.44, 3-(8-methyl-4-oxo-4H-quinazolin-3-yl)-piperidine-2,6-dione]	
264 to 268 °C	Cc1nc2ccc(CNC(=O)N(C)C)cc2c(=O)n1C1CCC(=O)NC1=O (stereo not shown) [Example 5.15, 3-[3-(2,6-dioxo-piperidin-3-yl)-2-methyl-4-oxo-3,4-dihydro-quinazolin-6-ylmethyl]-1,1-dimethyl-urea]	
